According to publication PMC9666555, “Genuine selective caspase-2 inhibition with new irreversible small peptidomimetics” (Cell Death & Disease, 2022):
“And” between values parts separate entries of the source, which are not always exact repeats. Identical values can stand only once. Like-named read-outs stand apart in the source and are kept apart here. Residues, ends and D or L forms follow the SMILES beside them. *: point of attachment. X1 = O=C(O)CC(N*)C(=O)COc1c(F)cccc1F; Quinaldoyl = O=C(c1ccc2ccccc2n1)*; Cbz = O=C(OCc1ccccc1)*; CH2F = FC*

Experiments:
recombinant human Casp2 = target: T1, recombinant human Casp2 (Homo sapiens, UniProt P42575); assay: Enzyme mechanistic studies (Ki, k3, k3/KI), Caspase-2; assay type: biochemical; settings: for Ki ratio (Casp3/Casp2): reversible inhibitors
T1 sequence (P42575 170-325 limits assumed): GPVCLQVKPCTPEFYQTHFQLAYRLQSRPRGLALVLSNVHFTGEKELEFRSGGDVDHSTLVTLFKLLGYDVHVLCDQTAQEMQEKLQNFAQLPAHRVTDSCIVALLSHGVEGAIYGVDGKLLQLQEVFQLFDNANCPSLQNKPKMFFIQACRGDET
T1 sequence (P42575 348-452 limits assumed): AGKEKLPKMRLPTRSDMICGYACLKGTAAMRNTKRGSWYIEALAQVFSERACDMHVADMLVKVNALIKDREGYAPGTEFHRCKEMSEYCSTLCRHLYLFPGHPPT
Protocol: (§1) For reversible inhibitors, the mechanisms of inhibition were determined by varying substrate and inhibitor concentrations and using Lineweaver−Burk representations to determine the inhibition constants Ki of competitive inhibitors (Ki = [E][I]/[EI]). For suicide inhibitors, inactivation can be represented by the minimum kinetic scheme (Eq. 2), where E and I are the free forms of enzyme and inhibitor, E * I a kinetic chimera of the Michaelis complex and E − I the covalent complex (inactivated enzyme).2 E+I⇄KIE*I→k3E−I
(§2) KI and k3 are the kinetic constants characterizing the inactivation process and the k3/KI ratio is an index of the inhibitory potency. The first-order rate constant, k3, and the apparent dissociation constant, KI, were determined for Caspase-2 and -3 using the progress curve method. Briefly, the enzyme activities were measured continuously for 120 min. To determine the kinetic parameters, progress curves were obtained at several inhibition concentrations using fixed substrate concentration. The product released for each inhibitor concentration was plotted versus the time following Eq. 3 where the constant π depended on [I]’, a modified inhibitor concentration due to substrate competition, according to Eq. 4. [I]’ is defined by Eq. 5, where KM was Michaelis constant for the enzymatic hydrolysis of the appropriate fluorogenic substrate. The ratio k3/KI was obtained by fitting the experimental data to the equations (F.U., fluorescence unit):3 F.U.=∫0tvidt+F.U0−vo×e^−π×t/π+F.U.0 4 π=k3×[I]^′/KI+[I]^′ 5 [I]^′=[I]/1+S/KM
Linear and nonlinear regression fits of the experimental data to the equations were performed with KaleidaGraph software. The experimental conditions were [Caspase-2]0 = 0.2 nM, [Ac-VDVAD-AMC]0 = 25 µM and [Caspase-3]0 = 0.1 nM, [Ac-DEVD-AMC]0 = 10 µM; [I]0 = 0–100 µM.

recombinant human Casp3 = target: T2, recombinant human Casp3 (Homo sapiens, UniProt P42574); assay: Enzyme mechanistic studies (Ki, k3, k3/KI), Caspase-3; assay type: biochemical
T2 sequence (P42574 29-175 limits assumed): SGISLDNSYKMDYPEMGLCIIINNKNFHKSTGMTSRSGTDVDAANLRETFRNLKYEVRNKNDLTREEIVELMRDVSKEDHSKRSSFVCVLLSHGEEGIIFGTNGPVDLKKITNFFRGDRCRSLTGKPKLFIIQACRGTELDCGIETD
T2 sequence (P42574 176-277 limits assumed): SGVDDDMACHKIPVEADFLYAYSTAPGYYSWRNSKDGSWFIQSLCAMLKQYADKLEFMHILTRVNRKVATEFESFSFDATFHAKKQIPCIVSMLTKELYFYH
Protocol: as §1, §2
Linear and nonlinear regression fits of the experimental data to the equations were performed with KaleidaGraph software.

[1] = target: T3, human active recombinant caspase-2 (Homo sapiens, UniProt P42575); assay: In vitro caspase activity and inhibition assay (IC50), Caspase-2; assay type: biochemical
T3 sequence (P42575 170-325 limits assumed): T1 sequence (P42575 170-325 limits assumed)
T3 sequence (P42575 348-452 limits assumed): T1 sequence (P42575 348-452 limits assumed)
Protocol: Stock solutions were stored at −80 °C.

[2] = target: T4, human active recombinant Caspase-3 (Homo sapiens, UniProt P42574); assay: In vitro caspase activity and inhibition assay (IC50), Caspase-3; assay type: biochemical
T4 sequence (P42574 29-175 limits assumed): T2 sequence (P42574 29-175 limits assumed)
T4 sequence (P42574 176-277 limits assumed): T2 sequence (P42574 176-277 limits assumed)
Protocol: The human active recombinant Caspase-3 (#707-C3) was purchased from R&D Systems (Minneapolis, USA). […] Stock solutions were stored at −80 °C. […] Caspase inhibitors were solubilized in DMSO at 10 mM and stored at −80 °C.
Initial velocity (V0) was determined from the linear portion of the progress curve. The composition of the activity buffer was: 20 mM HEPES, pH 7.4; 0.1% CHAPS, 5 mM DTT, 2 mM EDTA; 800 mM sodium succinate for Caspase-2 (0.2 nM) with 25 µM of Ac-VDVAD-7-amino-3-methylcoumarin (AMC) and 20 mM HEPES, pH 7.4; 0.1% CHAPS, 5 mM DTT, 2 mM EDTA; supplemented with 1 mg/mL of stabilizing agent bovine serum albumin (BSA) for Caspase-3 (0.1 nM) with 10 μM of Ac-DEVD-AMC. Compounds (0.001–100 µM) were tested in duplicate for each inhibitor concentration to detect their inhibitory potential. Enzymes and compounds were incubated for 30 min before initiating enzymatic reaction by adding substrate. Initial rates determined in control experiments (V0) were considered as 100% of the caspase activity; initial rates that were below 100% in the presence of tested compound (Vi) were considered as inhibition. The inhibitory activity of compounds was expressed as IC50 (Inhibitor concentration giving 50% inhibition). The values of IC50 were calculated by fitting the experimental data using Mars data Analysis 2.0 and KaleidaGraph software.1 %Inhibition=1001−Vi/V0=100I0/IC50+I0

HeLa cells = assay: Vincristine-induced HeLa cell death (propidium iodide, flow cytometry); assay type: cell-based, human; settings: 1 h pretreatment, 20 nM vincristine 44 h; for effect against vincristine-induced cell death: indicated doses; for inhibition of vincristine-induced cell death: inhibitor 30 µM
Protocol: HeLa cells (obtained from ATCC) were cultured in Dulbecco’s Modified Eagle Medium (DMEM, High Glucose, GlutaMAX™, Pyruvate) supplemented with antibiotics and 10% fetal calf serum (FCS) (Gibco, Life Technologies) and maintained in T75 Flasks at 1 × 10^6 cells per flask. Twenty-four hours before treatments, HeLa cells were transferred to 6-well plates (8 × 10^4 cells/well). The lymphoblastoid cell line Molt4cl8 was a gift from Dr. Bernard Krust (Inserm, University Paris 5) and was cultured in RPMI 1640 Glutamax medium supplemented with Hepes, antibiotics, and 10% FCS. HEK293 cells were obtained from ATCC (CRL-1573) and cultured in DMEM with Glutamax and 25 mM glucose (Life Technologies) supplemented with 10% FCS and antibiotics. For cell death induction, the following agents were added to cell cultures: Vincristine (Sigma) and Panobistat (LBH589; Selleck). Cell death was analyzed using fluorescence microscopy (Axio-observer Z1, Zeiss; equipped with CCD camera CoolsnapHQ2, Ropert Scientific) and cytofluorometry (MACSQuant® VYB; Miltenyi Biotec, Bergisch Gladbach, Germany) after labeling with propidium iodide (1 µg/mL; 10 min; 37 °C; Life Technologies) and Hoechst 33342 (1 µg/mL; 5 min; RT; Sigma).
Fig. 2 q33 and h33 are protective against the cytocidal effect of Vincristine. a Vincristine induces HeLa cell death. Cells were incubated for 44 h at 37 °C with 20 nM Vincristine (VCR), then incubated with propidium iodide at 2 μg/mL for 10 min and analyzed by flow cytometry to quantify plasma membrane permeabilization. Histograms show fluorescence intensity detected by flow cytometry (one representative experiment) in the presence (VCR) or Absence (Co.) of Vincristine. % of propidium iodide-positive cells are indicated for both conditions. b Dose–response of Vincristine-induced cell death. HeLa cells were incubated and treated as in (a) with the indicated doses of Vincristine (VCR) and analyzed by flow cytometry. […] Representative fluorescence microscopy micrographs of cells treated for 44 h with 20 nM vincristine (VCR) or not (Co.) and stained with Hoechst 33342. Vincristine induces progressive nuclear changes with first condensed nuclei (arrows) and then apoptotic bodies (dashed arrow). d Broad-spectrum irreversible caspase inhibitors prevent vincristine-induced cell death. HeLa cells were pretreated for 1 hr with the indicated broad-spectrum irreversible caspases inhibitors (z-VAD(OMe)-fmk at 30 μM, Q-VD-OPh 30 μM, Emricasan 10 μM, or the negative control Q-VE-OPh 30 μM), then treated with vincristine as in panel (a), and analyzed by flow cytometry. Histograms show the mean ± SD of 3 independent experiments (***p value < 0.001). e Effect of the reversible Caspase-2 inhibitors q33 and h33 against vincristine-induced cell death. HeLa cells were pretreated for 1 h with the indicated doses of q33 or h33, then treated with vincristine as in panel a, and analyzed by flow cytometry. Histograms show the mean ± SD of three independent experiments (*p value < 0.1). TEXT PRINTED IN THE PICTURE: (a) VCR: 39,5 % DOUBTS OF THE COPYIST ABOUT THIS PICTURE: Panel a: the picture prints no measure beside "39,5 %" and "4.1%". I assigned 39,5 % to VCR only because it stands by the grey VCR peak. / Panel a: "4.1%" seems to belong to the untreated control (Co.). That is not a substance, so it is left out.
Fig. 5 LJ2 inhibits cell death induced by microtubule destabilization and hydroxamic acid-based deacetylase (HDAC) inhibition. a Effect of the irreversible Caspase-2 inhibitors LJ2 against vincristine-induced cell death. HeLa cells were pretreated for 1 h with the indicated doses of LJ2, Q-VD-OPh, or Q-LETD-OPh, then treated with vincristine (VCR) as in Fig. 2, then incubated with propidium iodide at 2 μg/mL for 10 min and analyzed by flow cytometry. Histogram data are mean ± SD (n = 3, *p value < 0.01). b Effect of Caspases-inhibitors against Panobistat (LBH589)-induced cell death. […]

[3] = test system: Casp2-S1P-SREBP2 activation pathway in HEK 293 cells; assay: Casp2-dependent S1P cleavage and SREBP2 activation in transfected HEK 293 cells (WB); settings: 10 µM, 16 h
Protocol: To test SREBP processing, HEK 293 (ATCC® CRL-1573) cells were plated at a density of 0.5 × 10^5 per well (6-well plates). The next day, 1 μg of each cDNAs were transfected using lipofectamine 3000 (Thermo Fisher Scientific, MA) according to the manufacturer’s instruction. cDNAs used were empty vector (EV), Casp2-HA, PIDD-Flag, RAIDD-His, Myc-S1P, and V5-SREBP2. After 4 h, cells were incubated in DMEM/F12 medium supplemented with indicated Casp2 inhibitors (10 μM) for 16 h. Whole-cell lysates were prepared in lysate buffer (150 mM Tris-HCl, pH 7.4, 10% sodium-deoxycholate, 100 mM NaCl, 100 mM EDTA, 100 mM PMSF, 200 mM NaF, 100 mM Na3VO4, and a mixture of protease inhibitors). […] Equal quantities of proteins were subjected to immunoblot (WB) analysis with anti-Flag (#F7425 Sigma-Aldrich), anti-HA (#1867431, Roche), anti-Casp2 (#ALX-804-356, 11B4, Enzo Life Sciences), anti-V5 monoclonal antibody (#13202, Cell Signaling Technology), anti-Casp3 (#9661, #9662, #9664, Cell Signaling Technologies), and anti-HSP90 (#sc-101494, Santa Cruz Technologies).
HEK 293 cells were transfected with indicated plasmids in order to overexpress SREBP2, S1P, RAIDD, PIDD1, and Casp-2. […] HEK 293 cells were transfected with the indicated plasmids. […] Then, whole cell extracts (WCL) were prepared and subjected to WB analysis to detect Casp2 (through HA tag), RAIDD (through 6HIS tag), and PIDD1, PIDD1-C, PIDD1-CC (through Flag tag).

[4] = test system: Swiss mice hippocampal neurons; assay: Aβ oligomer-induced dendritic spine loss in hippocampal primary cultures; assay type: cell-based, mouse; settings: 100 nM, 6 h of exposure
Protocol: For the monoculture model (MBBT4 devices), 20 × 10^3 hippocampal neurons were seeded in each chamber. For the compartmentalized coculture model (neuronal diode in MBBT5 devices), 40 × 10^3 cortical cells and 15 × 10^3 hippocampal cells were seeded in each input chamber and output chamber, respectively. The culture medium was renewed every 5 days. Microfluidic chips were placed in Petri dishes containing 0.1% EDTA (Sigma) and incubated at 37 °C in a 5% CO2 atmosphere. In the neuronal diodes, cortical axons entered the microchannels and reached the hippocampi chamber in around 4–5 days. In both the monoculture and coculture systems, cells were cultured for 3 weeks to allow high dendrites and synapse density and intense electrical firing.
Cells were treated with caspase inhibitors and/or Aβ1–42 at 20 days in vitro. For the hippocampal monocultures, the culture medium was removed and replaced by fresh medium optionally containing 10 nM Aβ1–42 oligomers or monomers, with or without caspase inhibitors. After 6 h, cells were fixed, permeabilized, and subjected to immunolabelling. For cortico-hippocampal compartmentalized cocultures, the medium of the input chamber (cortical) was replaced by fresh medium optionally containing 100 nM Aβ1–42 oligomers or monomers, whereas the medium of the output (hippocampal) chamber was replaced by fresh medium optionally containing, or not, caspases inhibitors. […]
Immunostaining was performed directly in microfluidic chambers as described [38]. […] Images were analyzed using ImageJ software (NIH, Bethesda, MD, USA).
Synaptic disconnection was assessed as described [39] with slight modifications. Briefly, in hippocampal monocultures, synaptic disconnection was assessed through fluorescence microscopy by counting phalloidin clusters affixed to MAP2 and Bassoon. In cortico-hippocampal compartmentalized cocultures, synaptic disconnection was assessed by counting α-Synuclein presynaptic clusters affixed to MAP2-positive hippocampal dendrites. […] The images were similarly processed with ImageJ software before being used for quantification: the brightness/contrast of all control images were optimized manually to eliminate the background and to maximize the signal. The means of the minimum and maximum intensities were then calculated in the control condition and these settings were applied to all images. The brightness/contrast of all images was optimized manually to eliminate the background and maximize the intensity of the signal. α-synuclein/ MAP2 and Phalloidin/MAP2/Bassoon merges were then used for quantification. The number of spines was determined by counting individual clusters along ten dendritic regions (100 µm length each) in three independent experiments for every epitope. Only synapses detected on or near the neurites were included for analysis.

[5] = reversible competitive inhibitors, Lineweaver-Burk, read-out: Enzyme assays Casp2 Ki
[6] = reversible competitive inhibitors, Lineweaver-Burk, read-out: Enzyme assays Casp3 Ki (converted)
[7] = 30 min preincubation, 0.2 nM Caspase-2, 25 µM Ac-VDVAD-AMC, read-out: Enzyme assays Casp2 IC50
[8] = 30 min preincubation, 0.1 nM Caspase-3, 10 µM Ac-DEVD-AMC, read-out: Enzyme assays Casp3 IC50 (converted)
[9] = irreversible inhibitors, progress curve method

Molecule: CC(=O)N[C@H](C(=O)N[C@@H](CC(=O)O)C(=O)N[C@H](C(=O)N1CC[C@@H](OC(C)C)[C@@H]1C(=O)N[C@H]1CC(=O)OC1O)C(C)C)C(C)C (stereo partly shown) [c33, reference compound]
- Ki (recombinant human Casp2; [5]): 122 nM
- Ki (recombinant human Casp3; [6]): 2440 nM
- IC50 [1]: 271 nM
- IC50 [2]: 6720 nM

Molecule: CC(=O)NC(C(=O)NC(CC(=O)O)C(=O)NC(C(=O)N1CCC(c2ccccc2)C1C(=O)NC1CC(=O)OC1O)C(C)C)C(C)C (stereo not shown) [k33, reference compound]
- Ki (recombinant human Casp2; [5]): 90.5 nM
- Ki (recombinant human Casp3; [6]): 2770 nM
- IC50 [1]: 178 nM
- IC50 [2]: 1960 nM

Molecule: CC(=O)N[C@H](C(=O)N[C@@H](CC(=O)O)C(=O)N[C@H](C(=O)N1CCc2ccc(C)cc2[C@@H]1C(=O)N[C@H]1CC(=O)OC1O)C(C)C)C(C)C (stereo partly shown) [q33, reference compound]
- Ki (recombinant human Casp2; [5]): 24 nM
- Ki ratio (Casp3/Casp2) (recombinant human Casp2): 94.5
- effect against vincristine-induced cell death (HeLa cells): showed cytoprotective effect
- Ki (recombinant human Casp3; [6]): 2370 nM
- IC50 [1, 7]: 15 nM
- IC50 [2, 8]: 2540 nM

Molecule: CC(C)[C@H](NC(=O)c1ccc2ccccc2n1)C(=O)N[C@@H](CC(=O)O)C(=O)N[C@H](C(=O)N[C@@H](C)C(=O)NC(CC(=O)O)C(=O)COc1c(F)cccc1F)C(C)C (stereo partly shown) [Δ2Me-TRP601, Quinolin-2-carbonyl-VDVAD-CH2-O(2,6F2)Ph, reference compound] (Quinaldoyl-VDVA-X1)
- Casp2 k3 (recombinant human Casp2; [9]): 8,08 ms^−1
- Casp2 k3/KI (recombinant human Casp2; [9]): ~ 1,586,020 M^−1 s^−1 and 1 586 020 M^−1 s^−1
- KI (inactivation) (recombinant human Casp2; [9]): 5.49 nM
- S1P cleavage [3]: abolished
- SREBP2 activation [3]: abolished
- impact on RAIDD, PIDD1, and Casp2 expression [3]: no significant impact
- Casp3 k3 (recombinant human Casp3; [9]): 1,85 ms^−1
- Casp3 k3/KI (recombinant human Casp3; [9]): 1 613 405 M^−1 s^−1
- KI (inactivation) (recombinant human Casp3; [9]): 1.17 nM
- IC50 [2]: 0.31 ± 0.01 nM

Molecule: Q-LETD-OPh
- effect against vincristine-induced cell death (HeLa cells): no effect

Molecule: CC(=O)N[C@H](C(=O)N[C@@H](CC(=O)O)C(=O)N[C@H](C(=O)N1CC[C@H](CC(C)(C)C)[C@@H]1C(=O)N[C@H]1CC(=O)OC1O)C(C)C)C(C)C (stereo partly shown) [h33, reference compound]
- Ki (recombinant human Casp2; [5]): 10.9 nM
- Ki ratio (Casp3/Casp2) (recombinant human Casp2): 597
- effect against vincristine-induced cell death (HeLa cells): showed cytoprotective effect
- Ki (recombinant human Casp3; [6]): 6510 nM
- IC50 [1, 7]: 11 nM
- IC50 [2, 8]: 4570 nM

Molecule: CC(C)[C@H](NC(=O)c1ccc2ccccc2n1)C(=O)N[C@@H](CC(=O)O)C(=O)N[C@H](C(=O)N1CC[C@H](CC(C)(C)C)[C@H]1C(=O)NC(CC(=O)O)C(=O)COc1c(F)cccc1F)C(C)C (stereo partly shown) [LJ3b]
- k3/Ki ratio against Casp2, times lower than the one of the a isomer (LJ2a or LJ3a) (recombinant human Casp2): more than 2000 times
- Casp2 k3/KI (recombinant human Casp2; [9]): 823 M⁻¹ s⁻¹
- Ki (recombinant human Casp2; irreversible inhibitors, progress curve method, read-out: Casp2 KI): 8540 ± 300 nM
- Casp3 k3 (recombinant human Casp3; [9]): 0.8 ± 6 × 10^−5 ms^−1
- Casp3 k3/KI (recombinant human Casp3; [9]): 9 M⁻¹ s⁻¹
- Ki (recombinant human Casp3; irreversible inhibitors, progress curve method, read-out: Casp3 KI): 84200 nM

Molecule: CC(C)C(NC(=O)c1ccc2ccccc2n1)C(=O)NC(CCC(=O)O)C(=O)COc1c(F)cccc1F (stereo not shown) [Q-VE-OPh]
- inhibition of vincristine-induced cell death (HeLa cells): not

Molecule: Aβ1–42 oligomers: oligomers of human β-amyloid1-42 peptide [reference compound]
- decrease in spine density [4]: 50%

Molecule: COC(=O)C[C@H](NC(=O)[C@H](C)NC(=O)[C@@H](NC(=O)OCc1ccccc1)C(C)C)C(=O)CF [z-VAD(Ome)-fmk] (Cbz-Val-Ala-Asp(OMe)-CH2F)
- inhibition of vincristine-induced cell death (HeLa cells): more than 80%
